# PubChem BioAssay AID743340 (Broad Institute, 2014)
# Inconclusive results are not listed. Activity calls are given as the source filed them.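 The calls were made as follows: active = compounds whose fitted AC50 for signal loss is at most twice the top valid dose tested; inconclusive = flat curve with 30 to 70% inhibition, or poor fit; inactive = the rest.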
# Molecular target: Leucyl-cystinyl aminopeptidase (Mus musculus) (UniProt Q8C129)
# Experiment: inhibition of mouse IRAP aminopeptidase activity – biochemical, Leu-AMC fluorescence, cherry-picked samples, set 2, selectivity assay for ERAP1 modulator project, dose response (AID 743340)
# Conditions: purified IRAP, Leu-AMC cleavage fluorescence, 1 h
# Chain of Leucyl-cystinyl aminopeptidase (Mus musculus) (Q8C129 whole entry, looked up): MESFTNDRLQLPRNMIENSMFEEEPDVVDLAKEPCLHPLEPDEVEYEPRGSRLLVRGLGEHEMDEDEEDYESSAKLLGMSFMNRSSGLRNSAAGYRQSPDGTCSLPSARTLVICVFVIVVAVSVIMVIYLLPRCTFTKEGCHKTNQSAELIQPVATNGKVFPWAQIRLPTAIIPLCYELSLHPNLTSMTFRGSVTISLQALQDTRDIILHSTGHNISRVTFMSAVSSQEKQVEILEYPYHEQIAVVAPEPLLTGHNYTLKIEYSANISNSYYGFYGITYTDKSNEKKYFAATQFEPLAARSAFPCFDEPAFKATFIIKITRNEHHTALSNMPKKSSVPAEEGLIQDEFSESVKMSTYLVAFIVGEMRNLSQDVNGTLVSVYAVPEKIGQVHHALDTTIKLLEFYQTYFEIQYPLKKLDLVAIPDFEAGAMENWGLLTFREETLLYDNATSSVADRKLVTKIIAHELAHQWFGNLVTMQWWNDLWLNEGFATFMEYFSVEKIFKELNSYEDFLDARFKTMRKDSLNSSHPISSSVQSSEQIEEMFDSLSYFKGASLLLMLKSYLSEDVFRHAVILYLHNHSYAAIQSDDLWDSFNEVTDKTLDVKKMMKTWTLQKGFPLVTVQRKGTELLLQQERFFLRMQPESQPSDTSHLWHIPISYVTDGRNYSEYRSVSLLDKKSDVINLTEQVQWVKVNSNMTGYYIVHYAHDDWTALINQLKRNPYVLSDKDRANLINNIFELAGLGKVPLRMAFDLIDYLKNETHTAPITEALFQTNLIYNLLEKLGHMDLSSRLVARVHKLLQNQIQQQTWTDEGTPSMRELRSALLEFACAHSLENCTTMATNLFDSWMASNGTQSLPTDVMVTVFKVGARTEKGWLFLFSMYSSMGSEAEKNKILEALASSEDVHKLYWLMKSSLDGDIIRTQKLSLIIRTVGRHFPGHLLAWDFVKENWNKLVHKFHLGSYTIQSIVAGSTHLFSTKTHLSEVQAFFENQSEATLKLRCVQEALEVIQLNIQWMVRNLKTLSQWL
row,Structure (SMILES),AC50
1,CCCN(C)C[C@@H]1OCCCC[C@@H](C)Oc2ccc(NS(=O)(=O)c3c(C)noc3C)cc2C(=O)N([C@H](C)CO)C[C@@H]1C,> 20 µM (inactive)
2,CCCN(C)C[C@@H]1OCCCC[C@@H](C)Oc2ccc(NS(=O)(=O)c3ccc(C)cc3)cc2C(=O)N([C@H](C)CO)C[C@@H]1C,> 20 µM (inactive)
3,CC(C)[C@@H](C(=O)N[C@@H](CCc1ccc(O)cc1)C(=O)O)N(C)C(=O)[C@H](CO)NC(=O)[C@@H](O)[C@H](N)CCCCCCCCl,0.0449 µM
4,CCCN(C)C[C@@H]1OCCCC[C@@H](C)Oc2ccc(NS(=O)(=O)c3ccc(OC)cc3)cc2C(=O)N([C@H](C)CO)C[C@@H]1C,11.2 µM
5,O=C(O)c1ccccc1NS(=O)(=O)c1cccc(-n2sc3ccccc3c2=O)c1,> 22 µM (inactive)

# Same assay, conditions: purified IRAP, Leu-AMC cleavage fluorescence, 1 h; at 2.6 µM (top of the series)
row,Structure (SMILES),"activity change, negative = inhibition"
1,C[C@@H]1CCCCO[C@@H](CN(C)C(=O)CCC(F)(F)F)[C@@H](C)CN([C@@H](C)CO)C(=O)c2cc(NS(=O)(=O)c3ccccc3)ccc2O1,inactive

# Same assay, conditions: purified IRAP, Leu-AMC cleavage fluorescence, 1 h; at 5 µM (top of the series)
row,Structure (SMILES),"activity change, negative = inhibition"
1,C[C@@H]1CCCCO[C@@H](CN(C)C(=O)CCC(F)(F)F)[C@@H](C)CN([C@@H](C)CO)C(=O)c2cc(NS(=O)(=O)c3ccc(Cl)cc3)ccc2O1,inactive
2,CCCN(C)C[C@@H]1OCCCC[C@@H](C)Oc2ccc(NS(=O)(=O)c3ccc(C)cc3)cc2C(=O)N([C@@H](C)CO)C[C@@H]1C,inactive

# Same assay, conditions: purified IRAP, Leu-AMC cleavage fluorescence, 1 h; at 5.6 µM (top of the series)
row,Structure (SMILES),"activity change, negative = inhibition"
1,C[C@@H]1CCCCO[C@@H](CN(C)Cc2ccccc2)[C@@H](C)CN([C@H](C)CO)C(=O)c2cc(NS(=O)(=O)c3cccs3)ccc2O1,inactive
2,COc1ccc(S(=O)(=O)N(C)C[C@@H]2Oc3ncccc3C(=O)N([C@H](C)CO)C[C@@H]2C)cc1,inactive

# Same assay, conditions: purified IRAP, Leu-AMC cleavage fluorescence, 1 h; at 10 µM (top of the series)
row,Structure (SMILES),"activity change, negative = inhibition"
1,Cc1noc(C)c1S(=O)(=O)N(C)C[C@@H]1OCCCC[C@@H](C)Oc2ccc(NS(=O)(=O)c3cccs3)cc2C(=O)N([C@@H](C)CO)C[C@@H]1C,inactive
2,C[C@@H]1CCCCO[C@@H](CN(C)C)[C@H](C)CN([C@@H](C)CO)C(=O)c2cc(NC(=O)Nc3ccc(C(F)(F)F)cc3)ccc2O1,inactive

# Same assay, conditions: purified IRAP, Leu-AMC cleavage fluorescence, 1 h; at 11 µM (top of the series)
row,Structure (SMILES),"activity change, negative = inhibition"
1,NC(=NCCc1c[nH]c2ccccc12)NS(=O)(=O)c1cc(F)ccc1F,inactive
2,C[C@@H]1CCCCO[C@@H](CN(C)Cc2ccc(C(=O)O)cc2)[C@@H](C)CN([C@H](C)CO)C(=O)c2cc(NC(=O)Nc3cccc4ccccc34)ccc2O1,inactive
3,C[C@H]1CN([C@@H](C)CO)C(=O)c2cccc(NC(=O)Nc3ccc(C(F)(F)F)cc3)c2O[C@@H]1CN(C)C,inactive
4,COc1ccc(CN(C)C[C@@H]2OCCCC[C@@H](C)Oc3ccc(NS(=O)(=O)c4cccs4)cc3C(=O)N([C@H](C)CO)C[C@H]2C)cc1,inactive
5,COc1ccc(CN(C)C[C@H]2OCCCC[C@@H](C)Oc3ccc(NS(=O)(=O)c4cccs4)cc3C(=O)N([C@@H](C)CO)C[C@H]2C)cc1,inactive
6,COc1ccc(NC(=O)Nc2ccc3c(c2)C(=O)N([C@H](C)CO)C[C@@H](C)[C@@H](CN(C)Cc2ccc(C(=O)O)cc2)OCCCC[C@@H](C)O3)cc1,inactive
7,COc1ccc(CN(C)C[C@@H]2OCCCC[C@@H](C)Oc3ccc(NS(=O)(=O)c4cccs4)cc3C(=O)N([C@@H](C)CO)C[C@H]2C)cc1,inactive
8,COc1ccc2c3c([nH]c2c1)[C@H](CO)N(Cc1cc(F)ccc1F)CC31CN(C)C1,inactive
9,CO[C@@H]1CN(C)C(=O)c2ccc(NC(=O)Nc3cccc(Cl)c3)cc2OC[C@@H](C)NC[C@H]1C,inactive
10,CC(=O)N1CCN(C(=O)C2(NC(=O)Nc3ccc(C)cc3)CCCCC2)CC1,inactive
11,Cc1noc(C)c1S(=O)(=O)Nc1ccc2c(c1)C(=O)N([C@H](C)CO)C[C@@H](C)[C@@H](CN(C)CC1CCCCC1)OCCCC[C@@H](C)O2,inactive
12,Cc1noc(C)c1NC(=O)N(C)C[C@@H]1Oc2c(NC(=O)Nc3ccccc3)cccc2C(=O)N([C@H](C)CO)C[C@@H]1C,inactive
13,Cc1noc(C)c1NC(=O)Nc1ccc2c(c1)C(=O)N([C@H](C)CO)C[C@@H](C)[C@@H](CN(C)Cc1ccc(C(F)(F)F)cc1)OCCCC[C@@H](C)O2,inactive
14,CCCNC(=O)C[C@@H]1CC[C@@H]2[C@H](COC[C@H](O)CN2C(=O)Nc2cccc(Cl)c2)O1,inactive
15,C[C@@H]1CCCCO[C@H](CN(C)Cc2ccccc2)[C@H](C)CN([C@H](C)CO)C(=O)c2cc(NS(=O)(=O)c3ccccc3)ccc2O1,inactive
16,COc1ccc(NC(=O)Nc2ccc3c(c2)C(=O)N([C@H](C)CO)C[C@@H](C)[C@H](CN(C)Cc2ccc(C(=O)O)cc2)OCCCC[C@@H](C)O3)cc1,inactive
17,CCn1cc(CN2CCCC(C(=O)Nc3ccc(-c4nc5ccccc5[nH]4)cc3)C2)c(C)n1 (centres undefined),inactive
18,C[C@@H]1CCCCO[C@@H](CN(C)CC2CCCCC2)[C@H](C)CN([C@@H](C)CO)C(=O)c2cc(NC(=O)Nc3ccccc3)ccc2O1,inactive
19,C[C@@H]1CCCCO[C@H](CN(C)Cc2ccc(C(=O)O)cc2)[C@H](C)CN([C@@H](C)CO)C(=O)c2cc(NC(=O)Nc3ccc(C(F)(F)F)cc3)ccc2O1,inactive
20,Cc1cc(=O)oc2c(CN3CCN(C)CC3)c(O)c(Cl)cc12,inactive
21,C[C@H]1CN([C@@H](C)CO)C(=O)c2cccc(NC(=O)Nc3ccc(F)cc3)c2O[C@@H]1CN(C)C(=O)Nc1ccc2c(c1)OCO2,inactive
22,C[C@@H]1CCCCO[C@@H](CN(C)CC2CC2)[C@@H](C)CN([C@H](C)CO)C(=O)c2cc(NS(=O)(=O)c3cccs3)ccc2O1,inactive
23,C[C@@H]1CN([C@H](C)CO)C(=O)c2cccc(NC(=O)Nc3ccccc3)c2O[C@@H]1CN(C)Cc1ccc(C(=O)O)cc1,inactive
24,CCCNC(=O)C[C@H]1CC[C@@H]2[C@H](COC[C@H](O)CN2C(=O)Nc2cccc(Cl)c2)O1,inactive

row,Structure (SMILES),"activity change, negative = inhibition"
1,COc1ccc(NC(=O)Nc2cccc3c2O[C@H](CN(C)Cc2ccc(C(=O)O)cc2)[C@H](C)CN([C@H](C)CO)C3=O)cc1,inactive
2,C[C@H]1CN([C@@H](C)CO)C(=O)c2cccc(NC(=O)Nc3ccc4c(c3)OCO4)c2O[C@@H]1CN(C)CC1CC1,inactive
3,Cc1ccccc1-c1ccc2c(c1)O[C@@H](CN(C)Cc1ccc(C(=O)O)cc1)[C@@H](C)CN([C@@H](C)CO)S2(=O)=O,inactive
4,C[C@H](CO)N1C[C@H](C)[C@H](CN(C)CC2CCCCC2)Oc2c(NC(=O)Nc3ccc4c(c3)OCO4)cccc2C1=O,inactive
5,O=C(O)c1cccc(NC(=O)c2ccccc2NC(=O)c2cccc([N+](=O)[O-])c2)c1,inactive
6,CCC(=O)N(C)C[C@@H]1Oc2ncc(C#Cc3ccncc3)cc2C(=O)N([C@@H](C)CO)C[C@@H]1C,inactive
7,C[C@@H]1CN([C@H](C)CO)C(=O)c2cc(NC(=O)Nc3ccc(F)cc3)ccc2O[C@H]1CN(C)Cc1ccc(C(=O)O)cc1,inactive
8,COc1ccc(CN(C)C[C@@H]2OCCCC[C@H](C)Oc3ccc(NS(=O)(=O)c4cccs4)cc3C(=O)N([C@@H](C)CO)C[C@@H]2C)cc1,inactive
9,COC(=O)[C@H]1[C@H](CO)[C@H]2Cn3c(ccc(-c4ccncc4)c3=O)[C@H]2N1Cc1ccccc1F,inactive
10,COc1ccc(CN(C)C[C@@H]2OCCCC[C@@H](C)Oc3ccc(NS(=O)(=O)c4cccs4)cc3C(=O)N([C@H](C)CO)C[C@@H]2C)cc1,inactive
11,C[C@@H]1CCCCO[C@@H](CN(C)C)[C@@H](C)CN([C@@H](C)CO)C(=O)c2cc(NS(=O)(=O)c3ccc(F)cc3)ccc2O1,inactive
12,COc1ccc(CN(C)C[C@H]2OCCCC[C@@H](C)Oc3ccc(NS(=O)(=O)c4cccs4)cc3C(=O)N([C@@H](C)CO)C[C@@H]2C)cc1,inactive
13,O=C(C[C@@H]1CC[C@@H]2[C@H](COC[C@H](O)CN2C(=O)Nc2cccc(Cl)c2)O1)N1CCCCC1,inactive
14,CCCN(C)C[C@@H]1OCCCC[C@@H](C)Oc2ccc(NS(=O)(=O)c3cccs3)cc2C(=O)N([C@H](C)CO)C[C@@H]1C,inactive
15,N#Cc1c(N2CCNCC2)nc(-c2ccco2)c2c1CCCC2,inactive
16,COc1ccc(NC(=O)Nc2ccc3c(c2)C(=O)N([C@@H](C)CO)C[C@@H](C)[C@H](CN(C)Cc2ccc(C(=O)O)cc2)OCCCC[C@H](C)O3)cc1,inactive
17,Cc1ccccc1-c1ccc2c(c1)O[C@@H](CN(C)Cc1ccc(C(=O)O)cc1)[C@@H](C)CN([C@H](C)CO)S2(=O)=O,inactive
18,C[C@@H]1CCCCO[C@@H](CN(C)Cc2ccccc2)[C@H](C)CN([C@H](C)CO)C(=O)c2cc(NS(=O)(=O)c3cccs3)ccc2O1,inactive
19,C[C@@H]1CCCCO[C@@H](CN(C)Cc2ccc3c(c2)OCO3)[C@@H](C)CN([C@H](C)CO)C(=O)c2cc(NS(=O)(=O)c3cccs3)ccc2O1,inactive
20,COc1ccc(S(=O)(=O)Nc2ccc3c(c2)C(=O)N([C@@H](C)CO)C[C@H](C)[C@H](CN(C)C)OCCCC[C@@H](C)O3)cc1,inactive
21,Cc1noc(C)c1NC(=O)N(C)C[C@@H]1Oc2c(NC(=O)Nc3ccc(F)cc3)cccc2C(=O)N([C@H](C)CO)C[C@@H]1C,inactive
22,COc1cccc(S(=O)(=O)N(C)C[C@@H]2Oc3ncccc3C(=O)N([C@H](C)CO)C[C@@H]2C)c1,inactive
23,CNC[C@H]1OCCCC[C@@H](C)Oc2ccc(NS(=O)(=O)c3ccc(C)cc3)cc2C(=O)N([C@@H](C)CO)C[C@H]1C,inactive
